# Data as given in patent US20230279021A1, “POLYMORPHS OF A GABAA ALPHA5 AGONIST AND METHODS OF USING IN THE TREATMENT OF COGNITIVE IMPAIRMENT” (AGENEBIO, INC., priority 2020, published 2023).
# Entries after “also recorded” stand apart in the source; their conditions may differ.
# Legend:
# [1] = pKa of Compound 1 free base; type: physicochemical
# aged-impaired rats [2] = assay: Radial Arm Maze behavioral task, acute PO treatment; type: in vivo, Long-Evans rats; conditions: 10 mg/kg PO, 5-hr retention delay, compared to vehicle control
# Experimental: (§1) Aged, male Long-Evans rats were obtained at 9 months of age from Charles River Laboratories (Raleigh, N.C.) and housed in a vivarium at The Johns Hopkins University until background behavioral assessment in a water maze at 24 months of age. Young rats obtained from the same source were housed in the same vivarium and were included in the background assessment at 6 months of age but were not used for drug testing in a radial arm maze task. All rats were individually housed at 25° C. and maintained on a 12 h light/dark cycle. Food and water were provided ad libitum unless noted otherwise. The rats were examined for health and pathogen-free status throughout the experiments, as well as necropsies at the time of killing. All procedures were in accordance with NIH guidelines using protocols approved by the Institutional Animal Care and Use Committee at The Johns Hopkins University.
# All rats were screened in a standardized assessment of spatial cognition before the commencement of drug studies. The background assessment used a well-established Morris water maze protocol as described in detail elsewhere (Gallagher et al, 1993). Briefly, the rats were trained for 8 days (three trials per day) to locate a camouflaged escape platform that remained at the same location throughout training in a water maze. […]
# aged-impaired rats [3] = assay: Morris Water Maze behavioral task, acute and chronic IP treatment; type: in vivo, Long-Evans rats; conditions: 10 mg/kg IP, compared to vehicle control
# Experimental: as §1
# All rats were screened in a standardized assessment of spatial cognition before the commencement of drug studies. […]
# Rats were trained and tested in a novel water maze environment to assess the effect of the treatments. […] An hour after the last training trial, rats were given a probe test in the absence of the escape platform (free swim) to assess the memory of the platform location as measured by time spent searching at the target location. […]
# [4] = Thermal decomposition by DSC; type: physicochemical; conditions: 10° C./min
# Experimental: DSC was performed using a Mettler-Toledo DSC3+ differential scanning calorimeter. A tau lag adjustment is performed with indium, tin, and zinc. The temperature and enthalpy are adjusted with octane, phenyl salicylate, indium, tin and zinc. The adjustment is then verified with octane, phenyl salicylate, indium, tin, and zinc. The sample was placed into a hermetically sealed aluminum DSC pan, the weight was accurately recorded, and the sample was inserted into the DSC cell. A weighed aluminum pan configured as the sample pan was placed on the reference side of the cell. The pan lid was pierced prior to sample analysis. The samples were analyzed from −25° C. to 250° C. at 10° C./min.
# [5] = Dynamic vapor sorption (DVS) hygroscopicity; type: physicochemical; conditions: for hygroscopicity (DVS isotherm): 5% to 95% RH; for form of material recovered from the DVS experiment by XRPD: post DVS
# Experimental: Dynamic vapor sorption data was collected on a Surface Measurement System DVS Intrinsic instrument. The samples were not dried prior to analysis. Sorption and desorption data were collected over a range from 5% to 95% RH in 10% RH increments under a nitrogen purge. The equilibrium criteria used for the analyses were 0.001 dm/dt weight change in 5 minutes with a minimum step time of 30 minutes and maximum equilibration time of 180 minutes with a 3-minute data logging interval. Data were not corrected for the initial moisture content of the sample. The samples were identified as having low, limited or significant hygroscopicity based on the definitions in the below table.
# [6] = Competitive interconversion slurry experiments (relative thermodynamic stability of crystalline forms); type: physicochemical; conditions: solvent-mediated interconversion slurries, ambient temperature (Form E also 55° C. and 77° C.)
# Experimental: Interconversion experiments were performed to identify the most thermodynamically stable anhydrous form of Compound 1 (Table 9). […] The choice of solvent affects the kinetics of polymorph conversion and not the thermodynamic relationship between polymorphic forms.
# Various combinations of Forms B, E, F, and Material D were slurried with Form A at ambient and elevated temperatures (for experiments involving Form E). Different solvent systems were used and included a variety of water activities. Saturated solutions were generated and then added to the mixtures composed of approximately equivalent quantities of the forms. The mixtures were slurried for a particular duration of time and the solids harvested and analyzed by XRPD.
# [7] = Solid-state stability of crystalline forms on storage or heating (XRPD); type: physicochemical
# Experimental: XRPD patterns were collected with a PANalytical X'Pert PRO MPD or a PANalytical Empyrean diffractometer using an incident beam of Cu radiation produced using an Optix long, fine-focus source. An elliptically graded multilayer mirror was used to focus Cu Kα X-rays through the specimen and onto the detector. Prior to the analysis, a silicon specimen (NIST SRM 640e) was analyzed to verify the observed position of the Si 111 peak is consistent with the NIST-certified position. A specimen of the sample was sandwiched between 3-μm-thick films and analyzed in transmission geometry. A beam-stop, short antiscatter extension, and antiscatter knife edge were used to minimize the background generated by air. Soller slits for the incident and diffracted beams were used to minimize broadening from axial divergence. Diffraction patterns were collected using a scanning position-sensitive detector (X'Celerator) located 240 mm from the specimen and Data Collector software v. 5.5. […] All images have the instrument labeled as X'Pert PRO MPD regardless of the instrument used.
smiles,measurement,setting,value
"COCc1nnc2n1Cc1c(C#Cc3cnc(OC)s3)ncn1-c1ccc(Cl)cc1-2 [Compound 1, 5-((3-chloro-7-(methoxymethyl)-9H-benzo[f]imidazo[1,5-a][1,2,4]triazolo[4,3-d][1,4]diazepin-10-yl)ethynyl)-2-methoxythiazole]",pKa,[1],1.16 ± 0.04
same,number of errors in radial arm maze retention test,aged-impaired rats [2],fewer errors
same,time spent in target quadrant of the Morris Water Maze,aged-impaired rats [3],more time in the target quadrant
COCc1nnc2n1Cc1c(C#Cc3cnc(OC)s3)ncn1-c1ccc(Cl)cc1-2 [Form A],"DSC exotherm due to decomposition, onset",[4],about 207 °C
same,hygroscopicity (DVS isotherm),[5],limited hygroscopicity; also recorded: low hygroscopicity
same,weight change through the sorption/desorption cycle,"[5]; DVS, no hysteresis",~0.3%
same,form of material recovered from the DVS experiment by XRPD,[5],same as the starting material
same,relative thermodynamic stability,[6],"more thermodynamically stable than Form B and Material D at ambient temperature and more thermodynamically stable than Form E at ambient temperature, 55° C., and 77 °C"
COCc1nnc2n1Cc1c(C#Cc3cnc(OC)s3)ncn1-c1ccc(Cl)cc1-2 [Form B],"DSC exotherm due to decomposition, onset",[4],about 190 °C
same,relative thermodynamic stability,[6],metastable relative to Form A
COCc1nnc2n1Cc1c(C#Cc3cnc(OC)s3)ncn1-c1ccc(Cl)cc1-2 [Form C],"DSC exotherm due to decomposition, onset",[4],190 °C
same,stability under ambient conditions,[7]; 9 weeks under ambient conditions,unchanged
same,stability upon overnight exposure to 80° C.,[7]; overnight exposure to 80° C.,desolvate to Form B
COCc1nnc2n1Cc1c(C#Cc3cnc(OC)s3)ncn1-c1ccc(Cl)cc1-2 [Form E],"DSC exotherm due to decomposition, onset",[4],~201 °C
same,relative thermodynamic stability,[6],metastable relative to Form A
COCc1nnc2n1Cc1c(C#Cc3cnc(OC)s3)ncn1-c1ccc(Cl)cc1-2 [Form F],DSC exotherms following dehydration endotherm (decomposition upon dehydration),[4],above 120 °C
same,hygroscopicity (DVS isotherm),[5],limited hygroscopicity
same,weight gain,"[5]; DVS, from 5-95% RH",1.8%
same,weight loss upon desorption,"[5]; DVS, significant hysteresis",1.5%
same,form of material recovered from the DVS experiment by XRPD,[5],still Form F
same,stability under vacuum,[7]; 5 days under vacuum at ambient temperature,unchanged
same,stability upon exposure to 100° C.,"[7]; exposure to 100° C. (several minutes, XRPD)",dehydrate; also recorded: loss of crystallinity
COCc1nnc2n1Cc1c(C#Cc3cnc(OC)s3)ncn1-c1ccc(Cl)cc1-2 [Material D],"DSC exotherm due to decomposition, onset",[4],~174 °C
same,relative thermodynamic stability,[6],metastable relative to Form A
same,stability on ambient storage (XRPD),"[7]; 7 weeks of ambient storage, mixture with Form A",still remained
